Measurements: BigSolDB 2.1

O=C[C@H](O)[C@@H](O)[C@H](O)[C@H](O)CO
Conditions	solubility (mole fraction)
in n-decanol, 348.15 K	0.000902
in n-decanol, 353.15 K	0.000984
in n-decanol, 357.15 K	0.00119
in n-decanol, 367.15 K	0.00154
in n-decanol, 372.15 K	0.00178
in n-decanol, 377.15 K	0.00204
in n-decanol, 382.15 K	0.00239
in n-decanol, 387.15 K	0.00264
in n-decanol, 392.15 K	0.00327
in n-dodecanol, 349.15 K	0.000762
in n-dodecanol, 355.15 K	0.000802
in n-dodecanol, 360.15 K	0.000865
in n-dodecanol, 365.15 K	0.0011
in n-dodecanol, 370.15 K	0.0013
in n-dodecanol, 375.15 K	0.0014
in n-dodecanol, 382.15 K	0.00156
in n-dodecanol, 387.15 K	0.00186
in n-dodecanol, 393.15 K	0.00203
in n-octanol, 345.15 K	0.00098
in n-octanol, 355.15 K	0.00153
in n-octanol, 364.15 K	0.00192
in n-octanol, 369.15 K	0.00228
in n-octanol, 374.15 K	0.00241
in n-octanol, 379.15 K	0.0029
in n-octanol, 383.15 K	0.00341
